Results on 2 molecules are retold here after publication PMC8187479, “Sugar phosphate activation of the stress sensor eIF2B” (Nature Communications, 2021).

The target of series [1] is T1, eIF2B decamer in eIF2Bα^E198K HEK293T lysate (Homo sapiens, UniProt P49770+Q14232+Q9UI10, E198K).
T1 construct: endogenous in cells; host or cells: HEK293T, CRISPR knock-in eIF2Bα E198K (homozygous), lysate
The series is described as follows: Sucrose gradient centrifugation, eIF2B complex assembly, eIF2Bα E198K HEK293T lysate. Type of series: biochemical. Here is the method:
(§1) WT or eIF2Bα mutant HEK293T cells were harvested and lysed in 50 mM HEPES, 400 mM KCl, 1 mM DTT, 4 mM Mg(OAc)2, pH 7.5 + 0.5% Triton-X-100 + EDTA-free protease inhibitor cocktail (Roche) on ice for 30 min. Lysates were cleared by centrifugation at 48,000 × g, 4 °C for 30 min. 100 μL of each cleared lysate was loaded onto a 5–20% sucrose gradient prepared in a 13 × 51 mm ultracentrifuge tube using a Gradient Station (Biocomp) and centrifuged in a SW55 Ti rotor at 152,000 × g, 4 °C for 12 h. After centrifugation, 24 × 200 μL fractions were manually collected from the top to bottom of each gradient. Each fraction was subjected to methanol/chloroform precipitation and SDS-PAGE followed by Western Blot with the indicated antibodies. Blots were imaged on a ChemiDoc MP (Bio-Rad), and band intensities were quantified using the instrument’s Image Lab software. Each value was then divided by total intensity obtained across all fractions to determine percent enrichment of each subunit in each fraction.

Series [2] deals with T2, eIF2B decamer in WT HEK293T lysate (Homo sapiens, UniProt P49770+Q14232+Q9UI10).
T2 construct: endogenous in cells; host or cells: HEK293T (wild type) lysate
The series is described as follows: Sucrose gradient centrifugation, eIF2B complex assembly, WT HEK293T lysate. Type of series: biochemical. To be noted: 400 mM KCl, 5–20% sucrose gradient. Here is the method:
as §1

For the next series, the target named is T3, eIF2Bα^V183F (Homo sapiens, UniProt Q14232, V183F).
T3 construct: made in house; host or cells: E. coli BL21(DE3)
T3 sequence (Q14232 1-305 V183F): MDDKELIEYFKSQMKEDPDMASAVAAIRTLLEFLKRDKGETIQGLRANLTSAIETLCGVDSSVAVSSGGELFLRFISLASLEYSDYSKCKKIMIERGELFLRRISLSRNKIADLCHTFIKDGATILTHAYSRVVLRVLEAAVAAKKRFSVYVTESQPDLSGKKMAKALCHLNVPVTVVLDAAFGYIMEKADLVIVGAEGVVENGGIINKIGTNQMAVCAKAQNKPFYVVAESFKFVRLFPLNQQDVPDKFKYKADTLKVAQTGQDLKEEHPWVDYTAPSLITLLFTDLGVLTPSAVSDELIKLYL
The series is described as follows: Size-exclusion chromatography of recombinant eIF2Bα V183F, alone or with eIF2B(βδγε). The following applies: SEC, eIF2Bα V183F alone. In kind it is biochemical. On the procedure: (§2) Purified proteins were thawed and centrifuged at 20,000 × g, 10 min, 4 °C to remove any potential precipitate. Concentrations of eIF2B(βδγε) and eIF2Bα were normalized to 2 μM and 2.4 μM, respectively. 0.2 mL of each mixture was injected onto a Superose 6 Increase 10/300 column connected to an AKTA Pure 25 FPLC system (GE Healthcare). The system was run at 0.5 mL/min for 1 h using 25 mM HEPES, 200 mM KCl, 2 mM MgCl2, 1 mM DTT, pH 7.5 as the mobile phase. For conditions with ISRIB, the protein samples and mobile phase were supplemented with 500 nM ISRIB. For conditions with F6P, the protein samples and mobile phase were supplemented with 200 μM F6P. UV280 measurements were obtained directly by the instrument.
(In general: SEC sorts molecules by how far they enter the pores of the column.)

Series [3] concerns the target T4, phospho-eIF2α binding to eIF2B (Homo sapiens, UniProt P49770+Q14232+Q9UI10).
T4 construct: endogenous in cells; host or cells: HEK293T with FLAG knock-in at the endogenous eIF2Bβ locus, treated with thapsigargin; lysate, anti-FLAG IP
The series is described as follows: Phospho-eIF2α co-immunoprecipitation with FLAG-tagged eIF2B. The following applies: lysate of thapsigargin-treated HEK293T eIF2Bβ-FLAG cells; ligand 2 h at 4 °C. On the procedure:
HEK293T cells endogenously expressing eIF2Bβ with a C-terminal FLAG tag were maintained in DMEM High Glucose (Corning CellGro) supplemented with 10% FBS (Gibco) and antibiotic-antimycotic (Gibco). Upon reaching 90% confluency, cells were treated with either DMSO or 100 nM thapsigargin (Sigma) for 4 h. Cells were harvested and lysed in 25 mM HEPES, 150 mM KCl, 1% NP-40, 1 mM EDTA, pH 7.4 + Complete protease inhibitor cocktail (Roche) and PhosStop (Roche) on ice for 20 min. Lysates were cleared by centrifugation at 18,000 × g, 20 min, 4 °C, and transferred to Eppendorf tubes containing anti-FLAG M2 magnetic beads (Sigma). Mixtures were incubated overnight at 4 °C. To test the effect of ligands, these were added to the mixtures and incubated for an additional 2 h at 4 °C. Beads were washed three times with lysis buffer, eluted with 1× LDS buffer (Invitrogen), and subjected to SDS-PAGE followed by Western Blot with the indicated antibodies.

Series [4] has as its target T5, recombinant eIF2B(βδγε) ± eIF2Bα2 (Homo sapiens, UniProt P49770+Q14232+Q9UI10).
T5 construct: made in house; host or cells: eIF2Bα: E. coli BL21(DE3)
The series is described as follows: Size-exclusion chromatography of recombinant eIF2B(βδγε) with or without eIF2Bα. Type of series: biochemical. The following applies: SEC, recombinant eIF2B(βδγε) + eIF2Bα2; 500 nM ISRIB, 200 μM F6P. On the procedure:
as §2

Series [5] has as its target T6, recombinant eIF2B(βδγε) ± eIF2Bα2 (Homo sapiens, UniProt P49770+Q9UI10).
T6 construct: made in house; host or cells: eIF2Bα: E. coli BL21(DE3)
Described as above. In kind it is biochemical. The following applies: SEC, recombinant eIF2B(βδγε); 500 nM ISRIB, 200 μM F6P. Here is the method:
as §2

For series [6], the target named is T7, eIF2B in WT HEK293T lysate (Homo sapiens, UniProt P49770+Q14232+Q9UI10).
T7 construct: endogenous in cells; host or cells: HEK293T (wild type) lysate
The series is described as follows: GEF activity assay with WT HEK293T lysate. In kind it is biochemical. On the procedure: (§3) Bodipy-FL-GDP-loaded eIF2 was used as a substrate for recombinant eIF2B. The assay was performed in 384-well plates. Reactions were read on a SpectraMax i3x plate reader (Molecular Devices) using the instrument’s Softmax Pro software with the following parameters: plate temperature = 25 °C; excitation wavelength = 485 nm (15 nm width); emission wavelength = 535 nm (25 nm width); read duration = 30 min at 45 s intervals. Data were analyzed in Prism. GDP release half-lives were calculated by fitting single-exponential decay curves.
(§4) For unbiased screening, MIDAS metabolite libraries at 10 mM stock concentration were dispensed into wells of the assay plate using an Echo Acoustic Liquid Handler (Labcyte). In a final assay volume of 10 μL/well, the following conditions were kept constant: 25 nM Bodipy-FL-GDP-loaded eIF2, 4 nM phospho-eIF2, 0.1 mM GDP, 1 mg/mL BSA, 1 nM eIF2B, 10 μM metabolite. A single well was run for each metabolite. For targeted experiments with recombinant wild-type and mutant eIF2Bα, the following conditions were used: 50 nM Bodipy-FL-GDP-loaded eIF2, 0.1 mM GDP, 1 mg/ml BSA, 20 nM eIF2B. For targeted experiments with HEK293T lysates, the following conditions were used: 50 nM Bodipy-FL-GDP-loaded eIF2, 0.1 mM GDP, 1 mg/ml BSA, 0.1 or 0.3 mg/ml lysates.

The target in series [7] is T8, eIF2B decamer in eIF2Bα^V183F HEK293T lysate (Homo sapiens, UniProt P49770+Q14232+Q9UI10, V183F).
T8 construct: endogenous in cells
T8 sequence (P49770 whole entry, one chain of several): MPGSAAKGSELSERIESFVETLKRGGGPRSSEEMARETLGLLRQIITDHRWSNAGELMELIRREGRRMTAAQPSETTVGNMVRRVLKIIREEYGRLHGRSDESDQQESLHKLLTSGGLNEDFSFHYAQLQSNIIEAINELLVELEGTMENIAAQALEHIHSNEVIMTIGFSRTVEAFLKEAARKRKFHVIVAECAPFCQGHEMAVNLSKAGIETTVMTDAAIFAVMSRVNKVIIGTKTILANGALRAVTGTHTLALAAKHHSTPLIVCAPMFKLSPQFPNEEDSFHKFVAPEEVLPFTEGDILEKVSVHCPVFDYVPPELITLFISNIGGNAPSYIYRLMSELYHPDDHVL
T8 sequence (Q9UI10 whole entry, one chain of several): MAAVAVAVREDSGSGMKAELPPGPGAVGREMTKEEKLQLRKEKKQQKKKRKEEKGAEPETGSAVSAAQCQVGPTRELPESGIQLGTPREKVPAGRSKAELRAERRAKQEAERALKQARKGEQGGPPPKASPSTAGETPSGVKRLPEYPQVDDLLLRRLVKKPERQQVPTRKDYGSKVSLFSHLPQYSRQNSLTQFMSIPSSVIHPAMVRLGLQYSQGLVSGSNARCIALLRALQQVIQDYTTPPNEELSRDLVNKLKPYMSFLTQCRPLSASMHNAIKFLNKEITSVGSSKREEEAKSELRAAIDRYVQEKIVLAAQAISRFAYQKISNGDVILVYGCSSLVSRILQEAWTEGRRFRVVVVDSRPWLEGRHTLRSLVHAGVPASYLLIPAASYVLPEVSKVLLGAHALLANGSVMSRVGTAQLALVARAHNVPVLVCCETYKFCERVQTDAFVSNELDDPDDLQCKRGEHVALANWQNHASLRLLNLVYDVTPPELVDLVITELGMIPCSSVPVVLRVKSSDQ
T8 sequence (Q9NR50 whole entry partner, one chain of several): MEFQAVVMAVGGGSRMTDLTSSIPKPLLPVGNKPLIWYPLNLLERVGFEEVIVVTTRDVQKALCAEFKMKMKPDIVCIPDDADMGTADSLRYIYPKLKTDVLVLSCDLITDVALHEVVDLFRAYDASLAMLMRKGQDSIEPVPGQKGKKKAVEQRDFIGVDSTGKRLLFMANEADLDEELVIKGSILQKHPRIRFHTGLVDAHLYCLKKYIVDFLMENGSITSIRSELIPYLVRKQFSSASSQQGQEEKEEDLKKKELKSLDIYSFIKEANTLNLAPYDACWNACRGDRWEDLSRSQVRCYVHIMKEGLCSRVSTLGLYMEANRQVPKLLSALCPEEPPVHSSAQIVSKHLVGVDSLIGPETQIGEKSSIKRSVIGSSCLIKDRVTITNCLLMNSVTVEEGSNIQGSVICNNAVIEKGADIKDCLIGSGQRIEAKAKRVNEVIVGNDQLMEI
T8 sequence (Q13144 whole entry partner, one chain of several): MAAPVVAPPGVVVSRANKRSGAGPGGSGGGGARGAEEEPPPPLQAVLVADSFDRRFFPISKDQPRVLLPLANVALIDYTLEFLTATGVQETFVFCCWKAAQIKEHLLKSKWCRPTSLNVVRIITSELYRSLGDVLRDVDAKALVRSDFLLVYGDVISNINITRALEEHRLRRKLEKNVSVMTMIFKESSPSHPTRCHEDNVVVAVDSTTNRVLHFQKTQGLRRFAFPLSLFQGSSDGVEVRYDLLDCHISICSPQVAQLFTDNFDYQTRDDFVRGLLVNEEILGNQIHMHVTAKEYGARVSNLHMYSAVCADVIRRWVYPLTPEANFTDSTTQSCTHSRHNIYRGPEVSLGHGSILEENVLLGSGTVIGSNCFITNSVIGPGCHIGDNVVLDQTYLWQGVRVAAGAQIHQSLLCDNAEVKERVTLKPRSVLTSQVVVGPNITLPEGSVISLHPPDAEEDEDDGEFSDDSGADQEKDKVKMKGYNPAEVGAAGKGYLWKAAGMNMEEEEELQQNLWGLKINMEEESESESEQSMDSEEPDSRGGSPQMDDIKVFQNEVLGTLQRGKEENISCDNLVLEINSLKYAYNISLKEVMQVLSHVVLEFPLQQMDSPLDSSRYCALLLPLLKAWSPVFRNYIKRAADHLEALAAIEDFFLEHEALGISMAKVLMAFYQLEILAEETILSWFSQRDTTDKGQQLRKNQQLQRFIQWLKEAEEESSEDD
The series is described as follows: Sucrose gradient centrifugation, eIF2B complex assembly, eIF2Bα V183F HEK293T lysate. In kind it is biochemical. The following applies: 500 nM ISRIB, 200 μM F6P. Here is the method: as §1

Series [8] concerns the target T9, eIF2B in eIF2Bα^E198K HEK293T lysate (Homo sapiens, UniProt P49770+Q14232+Q9UI10, E198K).
T9 construct: endogenous in cells; host or cells: HEK293T, CRISPR knock-in eIF2Bα E198K (homozygous), lysate
In words: GEF activity assay with eIF2Bα E198K HEK293T lysate. In kind it is biochemical. On the procedure:
as §3, §4

Series [9] concerns the molecule itself. In words: SEC; purified eIF2Bα alone, 2.4 μM, Superose 6 Increase 10/300, 25 mM HEPES, 200 mM KCl, 2 mM MgCl2, 1 mM DTT, pH 7.5; no ligand (500 nM ISRIB had no effect).

T9 sequence (Q14232 whole entry E198K): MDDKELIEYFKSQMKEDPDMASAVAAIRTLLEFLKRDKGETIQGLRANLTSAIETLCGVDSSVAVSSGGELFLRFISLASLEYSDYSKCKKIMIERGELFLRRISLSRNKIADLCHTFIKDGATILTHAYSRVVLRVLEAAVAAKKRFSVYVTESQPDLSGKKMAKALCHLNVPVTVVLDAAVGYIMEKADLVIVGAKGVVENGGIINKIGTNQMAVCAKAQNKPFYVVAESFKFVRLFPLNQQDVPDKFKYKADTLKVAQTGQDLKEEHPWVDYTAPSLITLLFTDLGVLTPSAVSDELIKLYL
T9 sequence (P49770 whole entry): as the sequence (P49770 whole entry, one chain of several) above
T9 sequence (Q9UI10 whole entry): as the sequence (Q9UI10 whole entry, one chain of several) above
T9 sequence (Q9NR50 whole entry partner): as the sequence (Q9NR50 whole entry partner, one chain of several) above
T9 sequence (Q13144 whole entry partner): as the sequence (Q13144 whole entry partner, one chain of several) above

For the molecule `O=C(COc1ccc(Cl)cc1)NC1CCC(NC(=O)COc2ccc(Cl)cc2)CC1` (stereo not shown) [ISRIB, reference compound], the figures for the eIF2B decamer formation result in series [1] and in series [7] were “produced a shift to the decameric form” and “promoted decamer formation at comparable levels”, respectively. Moreover, the “eIF2B decamer formation (migration of eIF2Bα and eIF2Bδ)” value in series [2] is on record as “formation of the decameric holoenzyme”. The “monomer-to-dimer shift of eIF2Bα V183F” value on eIF2Bα^V183F was “had no effect”. Further, the “co-immunoprecipitation of phospho-eIF2α with FLAG-tagged eIF2B” value in [3] is recorded as “significantly disrupted”. The “complex formation in the presence of eIF2Bα” value in [4] was “enhanced formation”. Also, the “complex formation in the absence of eIF2Bα” value in [5] is “enhanced formation of an (βδγε)2 octamer”. In addition, the “effect on GEF activity of WT lysate” value in series [6] is recorded as “stimulated”. The “effect on GEF activity of eIF2Bα E198K lysate” value in series [8] is given as “boosted”.

B1: eIF2Bα (eukaryotic translation initiation factor 2B, α subunit), wild type, recombinant (natural protein, human)
chain: MDDKELIEYFKSQMKEDPDMASAVAAIRTLLEFLKRDKGETIQGLRANLTSAIETLCGVDSSVAVSSGGELFLRFISLASLEYSDYSKCKKIMIERGELFLRRISLSRNKIADLCHTFIKDGATILTHAYSRVVLRVLEAAVAAKKRFSVYVTESQPDLSGKKMAKALCHLNVPVTVVLDAAVGYIMEKADLVIVGAEGVVENGGIINKIGTNQMAVCAKAQNKPFYVVAESFKFVRLFPLNQQDVPDKFKYKADTLKVAQTGQDLKEEHPWVDYTAPSLITLLFTDLGVLTPSAVSDELIKLYL
notes: eIF2Bα, human, UniProt Q14232; called the small 34 kDa eIF2Bα subunit; C-terminal TEV-avi-FLAG tag; also called eIF2Bα2; α2
B1: in series [9], the stoichiometry N – broadly, a count of units in the complex or per binding partner – came to 2.
